Measurements taken from US20170298056A1, “SMALL MOLECULE INHIBITORS OF HIV-1 ENTRY AND METHODS OF USE THEREOF” (Dana-Farber Cancer Institute, Inc., priority 2014, published 2017).
Where two headings read alike, the source gives them in different places.

Tests used:
[1] = test system: amphotropic murine leukemia virus (A-MLV); assay: Viral infection assay, control virus with A-MLV envelope; assay type: cell-based
Protocol: (§1) Production of recombinant HIV-1 expressing luciferase. […] After 48 hours, the supernatant was collected, buffered with 50 mM Hepes pH 7.4 (final concentration) and centrifuged for 5 minutes at 750×g and 4° C. The virus-containing supernatant was used directly or frozen at −80° C.
(§2) Viral infection assay. Each test compound was serially diluted in DMSO in a 96-well B&W isoplate (PerkinElmer, Boston, Mass.) using an HP D300 Digital Dispenser, to a final volume of 450 nl. DMSO was used as a control. Viruses pseudotyped with a specific Env were added to each well and incubated briefly at room temperature. Cf2Th-CD4/CCR5 cells were detached with StemPro Accutase Cell Dissociation Reagent (Invitrogen, cat #A11105-01), washed once, and 5000 cells were added to each well. […] Following incubation, the medium was aspirated and cells were lysed with 30 μl of Passive Lysis Buffer (Promega, cat #E1941). The activity of the firefly luciferase, which was used as a reporter protein in the system, was measured with a Centro LB 960 luminometer (Berthold Technologies, Oak Ridge, Tenn.). One hundred microliters of assay buffer (15 mM MgSO4, 15 mM KH2PO4/K2HPO4 pH 7.8, 1 mM ATP and 1 mM DTT) was injected to each well, followed by a 50 μl injection of 1 mM Dluciferin potassium salt (BD Pharmingen, San Jose, Calif.); luminescence was measured for 2 sec. Infection of PBMC was done as above, but 20,000-40,000 cells/well and viruses concentrated by ultracentrifugation were used. After four hours of incubation with viruses, the cells were centrifuged at 200×g for 6 minutes at 4° C., resuspended in 100 μl RPMI-PBMC medium and incubated at 37° C. for an additional 36-40 hours (total 40-44 hours). Supernatant was removed after centrifugation at 400×g for 5 minutes and cells were processed to detect luciferase activity, as described above.
The effect of 18A on viral infection was tested using recombinant HIV-1 pseudotyped with the envelope glycoproteins of different primate immunodeficiency viruses or the amphotropic murine leukemia virus (A-MLV) as a control.

HIV-1YU2 = assay: Viral infection assay, YU2 Env (wild type and mutants); assay type: cell-based; details: for Fold change: mutant/wild-type IC50
From the text: HIV-1 Env mutants. Mutations were introduced into the plasmid expressing the fulllength HIV-1YU2 or HIV-1JR-FL Envs using the QuikChange II site-directed mutagenesis protocol or the QuikChange multi site-directed mutagenesis kit (Stratagene). The presence of the desired mutations was confirmed by DNA sequencing. All HIV-1 Env residues are numbered based on alignment with the HXBc2 prototypic sequence, according to current convention.
as §1, §2

`O=C(N/N=C/c1ccc(O)cc1)Nc1cccc2nsnc12` [Compound 18A] gave an IC50 ([1]; Cf2Th-CD4/CCR5 cells, read-out: IC50 for the control A-MLV) of 56 µM, an IC50 ([1]; Example 8 table, read-out: IC50 (A-MLV)) of 56.5 µM and an IC50 (HIV-1YU2; YU2 Env D113A) of 6 ± 1.4 µM. For the same molecule, the Fold change (HIV-1YU2; YU2 Env D113A) was 0.7, the IC50 (HIV-1YU2; YU2 Env D589L) was 12.1 ± 1.5 µM and the Fold change (HIV-1YU2; YU2 Env D589L) was 1.4. The IC50 (HIV-1YU2; YU2 Env E370A) was 2.3 ± 0.8 µM, the Fold change (HIV-1YU2; YU2 Env E370A) was 0.3 and the IC50 (HIV-1YU2; YU2 Env E429K) was 9 ± 1.4 µM. The Fold change (HIV-1YU2; YU2 Env E429K) was 1.1, the IC50 (HIV-1YU2; YU2 Env H66A) was 8 ± 0.9 µM and the Fold change (HIV-1YU2; YU2 Env H66A) was 1. It also gave an IC50 (HIV-1YU2; YU2 Env H66N) of 4.6 ± 0.5 µM, a Fold change (HIV-1YU2; YU2 Env H66N) of 0.5 and an IC50 (HIV-1YU2; YU2 Env I108A) of 6.1 ± 0.7 µM. For the same molecule, the Fold change (HIV-1YU2; YU2 Env I108A) was 0.7, the IC50 (HIV-1YU2; YU2 Env I109W) was 2.9 ± 0.4 µM and the Fold change (HIV-1YU2; YU2 Env I109W) was 0.3. It also gave an IC50 (HIV-1YU2; YU2 Env I285A) of 6.3 ± 1.5 µM, a Fold change (HIV-1YU2; YU2 Env I285A) of 0.7 and an IC50 (HIV-1YU2; YU2 Env I309A) of 4.2 ± 1.3 µM. For the same molecule, the Fold change (HIV-1YU2; YU2 Env I309A) was 0.5, the IC50 (HIV-1YU2; YU2 Env I371A) was 6.5 ± 0.9 µM and the Fold change (HIV-1YU2; YU2 Env I371A) was 0.8. For the same molecule, the IC50 (HIV-1YU2; YU2 Env I420C) was 2.1 ± 0.4 µM, the Fold change (HIV-1YU2; YU2 Env I420C) was 0.2 and the IC50 (HIV-1YU2; YU2 Env I420S) was 4.8 ± 0.8 µM. It also gave a Fold change (HIV-1YU2; YU2 Env I420S) of 0.6, an IC50 (HIV-1YU2; YU2 Env I423R) of 2.4 ± 0.4 µM and a Fold change (HIV-1YU2; YU2 Env I423R) of 0.3. The IC50 (HIV-1YU2; YU2 Env K117W) was 6.5 ± 1.1 µM, the Fold change (HIV-1YU2; YU2 Env K117W) was 0.8 and the IC50 (HIV-1YU2; YU2 Env L111A) was 10.4 ± 1.6 µM. It also gave a Fold change (HIV-1YU2; YU2 Env L111A) of 1.2, an IC50 (HIV-1YU2; YU2 Env L260A) of 3.4 ± 1.5 µM and a Fold change (HIV-1YU2; YU2 Env L260A) of 0.4. The IC50 (HIV-1YU2; YU2 Env L261A) was 4.9 ± 1 µM, the Fold change (HIV-1YU2; YU2 Env L261A) was 0.6 and the IC50 (HIV-1YU2; YU2 Env L317A) was 10.2 ± 1.4 µM. It also gave a Fold change (HIV-1YU2; YU2 Env L317A) of 1.2, an IC50 (HIV-1YU2; YU2 Env M475A (associated with resistance to BMS-806)) of 10.2 ± 2.6 µM and a Fold change (HIV-1YU2; YU2 Env M475A) of 1.2. It also gave an IC50 (HIV-1YU2; YU2 Env N377A) of 3.3 ± 0.6 µM, a Fold change (HIV-1YU2; YU2 Env N377A) of 0.4 and an IC50 (HIV-1YU2; YU2 Env P212A) of 10.2 ± 1.5 µM. For the same molecule, the Fold change (HIV-1YU2; YU2 Env P212A) was 1.2, the IC50 (HIV-1YU2; YU2 Env Q114N) was 14.8 ± 2.1 µM and the Fold change (HIV-1YU2; YU2 Env Q114N) was 1.7. For the same molecule, the IC50 (HIV-1YU2; YU2 Env S110A) was 7.3 ± 1.6 µM, the Fold change (HIV-1YU2; YU2 Env S110A) was 0.9 and the IC50 (HIV-1YU2; YU2 Env S110N) was 5.9 ± 1.8 µM. For the same molecule, the Fold change (HIV-1YU2; YU2 Env S110N) was 0.7, the IC50 (HIV-1YU2; YU2 Env S375A) was 10 ± 1.3 µM and the Fold change (HIV-1YU2; YU2 Env S375A) was 1.2. It also gave an IC50 (HIV-1YU2; YU2 Env S375W (associated with resistance to BMS-806)) of 14.6 ± 2.8 µM, a Fold change (HIV-1YU2; YU2 Env S375W) of 1.7 and an IC50 (HIV-1YU2; YU2 Env T71A) of 7.1 ± 1.4 µM. It also gave a Fold change (HIV-1YU2; YU2 Env T71A) of 0.8, an IC50 (HIV-1YU2; YU2 Env T257A) of 13.2 ± 1.1 µM and a Fold change (HIV-1YU2; YU2 Env T257A) of 1.5. It also gave an IC50 (HIV-1YU2; YU2 Env T257S) of 6.9 ± 0.8 µM, a Fold change (HIV-1YU2; YU2 Env T257S) of 0.8 and an IC50 (HIV-1YU2; YU2 Env V255A) of 14 ± 1.2 µM. For the same molecule, the Fold change (HIV-1YU2; YU2 Env V255A) was 1.6, the IC50 (HIV-1YU2; YU2 Env V255G) was 7.9 ± 1.7 µM and the Fold change (HIV-1YU2; YU2 Env V255G) was 0.9. For the same molecule, the IC50 (HIV-1YU2; YU2 Env V255I) was 5.4 ± 1.3 µM, the Fold change (HIV-1YU2; YU2 Env V255I) was 0.6 and the IC50 (HIV-1YU2; YU2 Env V255W) was 3.6 ± 1.3 µM. It also gave a Fold change (HIV-1YU2; YU2 Env V255W) of 0.4, an IC50 (HIV-1YU2; YU2 Env V430A) of 5.9 ± 0.6 µM and a Fold change (HIV-1YU2; YU2 Env V430A) of 0.7. It also gave an IC50 (HIV-1YU2; YU2 Env V430S) of 2.9 ± 0.3 µM, a Fold change (HIV-1YU2; YU2 Env V430S) of 0.3 and an IC50 (HIV-1YU2; YU2 Env W69L) of 3.5 ± 0.5 µM. For the same molecule, the Fold change (HIV-1YU2; YU2 Env W69L + S375W) was 1.7, the Fold change (HIV-1YU2; YU2 Env W69L) was 0.4 and the IC50 (HIV-1YU2; YU2 Env W479A) was 1.3 ± 0.2 µM. The Fold change (HIV-1YU2; YU2 Env W479A) was 0.2, the IC50 (HIV-1YU2; YU2 Env W596M) was 9.4 ± 1.4 µM and the Fold change (HIV-1YU2; YU2 Env W596M) was 1.1. The IC50 (HIV-1YU2; YU2 Env double mutant W69L + S375W) was 15 ± 2.5 µM, the IC50 (HIV-1YU2; YU2 Env wild type) was 8.6 ± 1.4 µM and the Fold change (HIV-1YU2; YU2 Env wild type) was 1.
